# From patent US20070249607A1, “NK-1 AND SEROTONIN TRANSPORTER INHIBITORS” (Bristol-Myers Squibb Company, priority 2006, published 2007)
# Like-named read-outs stand apart in the source and are kept apart here.
# How the values were obtained:
# [1] = molecular target: T1, human serotonin transporters (Homo sapiens, UniProt P31645); test: Serotonin transporter binding assay ([3H]-citalopram competition, HEK-hSERT cell membranes)
# T1 construct: expressed in transfected cells
# In short: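 Competition binding against 1 nM [3H]-citalopram (1 hr, 25 °C, Tris pH 7.4 with NaCl/KCl) on stably transfected HEK-hSERT cell membranes, bound ligand collected on filters. Fluoxetine (10 μM) defined nonspecific binding; curve midpoint gives IC50, convertible to Ki by Cheng–Prusoff.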
# [2] = molecular target: T2, neurokinin-1 (NK-1) receptor (Homo sapiens, UniProt P25103); test: NK-1 Binding assay ([125I] Substance P competition, U373 cell membranes); settings: Table 2; U373 membranes, [125I] Substance P displacement; read-out: NK-1 IC50
# T2 construct: a human glioblastoma-astrocytoma cell line that endogenously expresses the neurokinin-1 (NK-1) receptor; endogenous in cells; host or cells: U373 human glioblastoma-astrocytoma cells (membranes)
# T2 sequence (P25103 whole entry): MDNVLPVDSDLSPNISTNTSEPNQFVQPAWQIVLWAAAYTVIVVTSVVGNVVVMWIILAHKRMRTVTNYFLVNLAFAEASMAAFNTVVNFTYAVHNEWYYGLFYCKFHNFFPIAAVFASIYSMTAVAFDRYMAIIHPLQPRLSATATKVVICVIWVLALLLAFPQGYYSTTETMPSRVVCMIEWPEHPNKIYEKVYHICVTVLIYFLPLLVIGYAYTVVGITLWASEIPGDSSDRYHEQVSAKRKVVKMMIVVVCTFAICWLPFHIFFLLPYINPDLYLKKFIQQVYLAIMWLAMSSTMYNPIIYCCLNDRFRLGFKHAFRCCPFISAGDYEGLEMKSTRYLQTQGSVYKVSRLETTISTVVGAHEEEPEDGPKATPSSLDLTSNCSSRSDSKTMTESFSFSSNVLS
# In short: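 Membranes were prepared from U373 human glioblastoma-astrocytoma cells, which express NK-1 endogenously, in 50 mM Tris-HCl pH 7.4 with 3 mM MnCl2, BSA and protease inhibitors. IC50 taken as the midpoint of the specific-binding displacement curve.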
# [3] = Table 2, HEK-hSERT membranes, [3H]-citalopram displacement, read-out: SERT IC50
# T1 sequence (P31645 whole entry): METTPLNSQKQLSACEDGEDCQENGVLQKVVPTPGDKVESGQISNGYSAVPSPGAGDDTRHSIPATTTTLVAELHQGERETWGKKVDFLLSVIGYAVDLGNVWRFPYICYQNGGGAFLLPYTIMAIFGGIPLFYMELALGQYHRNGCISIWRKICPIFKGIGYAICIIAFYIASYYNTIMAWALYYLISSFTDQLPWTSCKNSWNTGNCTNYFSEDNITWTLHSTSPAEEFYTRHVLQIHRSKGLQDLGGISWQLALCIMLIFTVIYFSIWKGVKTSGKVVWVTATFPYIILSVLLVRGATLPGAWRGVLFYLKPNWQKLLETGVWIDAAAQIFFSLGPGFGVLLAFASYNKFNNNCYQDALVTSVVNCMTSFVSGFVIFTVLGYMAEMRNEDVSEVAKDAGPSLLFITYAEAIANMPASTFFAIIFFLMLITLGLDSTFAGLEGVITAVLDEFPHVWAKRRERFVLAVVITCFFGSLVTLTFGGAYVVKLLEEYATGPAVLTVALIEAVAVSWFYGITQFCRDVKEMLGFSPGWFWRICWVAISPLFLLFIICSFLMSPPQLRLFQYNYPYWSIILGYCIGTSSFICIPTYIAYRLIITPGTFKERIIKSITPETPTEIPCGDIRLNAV
Structure (SMILES),"IC50 [1, 3]",IC50 [2],IC50 [1]
Cc1cc(-c2cc(COCC3(c4ccccc4)CCNCC3)cc(C(F)(F)F)c2)ccc1F,0.01 to 100 nM,0.01 to 100 nM,
FC(F)(F)c1cc(COCC2(c3ccccc3)CCNCC2)cc(-c2ccc(C3CCCCC3)cc2)c1,100 to 300 nM,> 300 nM,
CCc1ccccc1-c1cc(COCC2(c3ccccc3)CCNCC2)cc(C(F)(F)F)c1,0.01 to 100 nM,> 300 nM,
Cc1cc(-c2cc(COCC3(c4ccccc4)CCNCC3)cc(C(F)(F)F)c2)cc(C)c1O,0.01 to 100 nM,> 300 nM,
O=[N+]([O-])c1ccc(-c2cc(COCC3(c4ccccc4)CCNCC3)cc(C(F)(F)F)c2)cc1,0.01 to 100 nM,0.01 to 100 nM,
COc1ccc(-c2cc(COCC3(c4ccccc4)CCNCC3)cc(C(F)(F)F)c2)cc1C,0.01 to 100 nM,0.01 to 100 nM,
CCCOc1cccc(-c2cc(COCC3(c4ccccc4)CCNCC3)cc(C(F)(F)F)c2)c1,100 to 300 nM,> 300 nM,
COc1ccc(-c2cc(COCC3(c4ccccc4)CCNCC3)cc(C(F)(F)F)c2)c(F)c1F,0.01 to 100 nM,0.01 to 100 nM,
COc1c(F)cc(-c2cc(COCC3(c4ccccc4)CCN(C)CC3)cc(C(F)(F)F)c2)cc1F,,0.01 to 100 nM,0.01 to 100 nM
COc1cc(-c2cc(COCC3(c4ccccc4)CCN(C)CC3)cc(C(F)(F)F)c2)ccc1C#N,,0.01 to 100 nM,0.01 to 100 nM
COc1cc(F)c(-c2cc(COCC3(c4ccccc4)CCN(C)CC3)cc(C(F)(F)F)c2)cc1F,,0.01 to 100 nM,0.01 to 100 nM
CN1CCC(COCc2cc(-c3cc(F)c(C#N)cc3F)cc(C(F)(F)F)c2)(c2ccccc2)CC1,,0.01 to 100 nM,0.01 to 100 nM
CN1CCC(COCc2cc(-c3ccc(C#N)cc3)cc(C(F)(F)F)c2)(c2ccc(F)cc2F)CC1,,0.01 to 100 nM,0.01 to 100 nM
COc1ccc(-c2cc(COCC3(c4ccccc4)CCN(C)CC3)cc(C(F)(F)F)c2)c(F)c1F,,0.01 to 100 nM,0.01 to 100 nM
COc1ccc(-c2cc(COCC3(c4ccccc4)CCN(C)CC3)cc(C(F)(F)F)c2)cc1C,,0.01 to 100 nM,0.01 to 100 nM
N#Cc1ccc(-c2cc(COCC3(c4ccc(F)cc4C#N)CCNCC3)cc(C(F)(F)F)c2)cc1,0.01 to 100 nM,0.01 to 100 nM,
CN1CCC(COCc2cc(-c3ccc(C#N)cc3)cc(C(F)(F)F)c2)(c2cccc(C#N)c2)CC1,,0.01 to 100 nM,0.01 to 100 nM

Structure (SMILES),"IC50 [1, 3]",IC50 [2],IC50 [1]
N#Cc1ccc(-c2cc(COCC3(c4ccc(F)cc4-c4ccccc4)CCNCC3)cc(C(F)(F)F)c2)cc1,100 to 300 nM,0.01 to 100 nM,
N#Cc1ccc(-c2cc(COCC3(c4ccc(F)cc4Br)CCNCC3)cc(C(F)(F)F)c2)cc1,0.01 to 100 nM,0.01 to 100 nM,
N#Cc1ccc(-c2cc(COCC3(c4cccc(Cl)c4)CCNCC3)cc(C(F)(F)F)c2)cc1,0.01 to 100 nM,0.01 to 100 nM,
CN1CCC(COCc2cc(-c3ccc(C#N)cc3)cc(C(F)(F)F)c2)(c2cccnc2)CC1,,0.01 to 100 nM,0.01 to 100 nM
N#Cc1ccc(-c2cc(COCC3(c4ccc(F)c(F)c4)CCNCC3)cc(C(F)(F)F)c2)cc1,0.01 to 100 nM,0.01 to 100 nM,
CN1CCC(COCc2cc(-c3ccc(C#N)cc3)cc(C(F)(F)F)c2)(c2ccc(F)c(F)c2)CC1,,0.01 to 100 nM,0.01 to 100 nM
CN1CCC(COCc2cc(-c3ccc(C#N)cc3)cc(C(F)(F)F)c2)(c2ccc(Br)cc2)CC1,,0.01 to 100 nM,0.01 to 100 nM
CN1CCC(COCc2cc(-c3ccc(C#N)cc3)cc(C(F)(F)F)c2)(c2cccc(Br)c2)CC1,,0.01 to 100 nM,0.01 to 100 nM
N#Cc1ccc(-c2cc(COCC3(c4ccc(Br)cc4)CCNCC3)cc(C(F)(F)F)c2)cc1,0.01 to 100 nM,0.01 to 100 nM,
N#Cc1ccc(-c2cc(COCC3(c4cccc(Br)c4)CCNCC3)cc(C(F)(F)F)c2)cc1,0.01 to 100 nM,0.01 to 100 nM,
CN1CCC(COCc2cc(-c3ccc(C#N)cc3)cc(C(F)(F)F)c2)(c2ccc(C#N)cc2)CC1,,0.01 to 100 nM,0.01 to 100 nM
CN1CCC(COCc2cc(-c3ccc(C#N)cc3)cc(C(F)(F)F)c2)(c2cccc(Cl)c2)CC1,,0.01 to 100 nM,0.01 to 100 nM
CN1CCC(COCc2cc(-c3ccc(C#N)cc3)cc(C(F)(F)F)c2)(c2cccc(C(F)(F)F)c2)CC1,,0.01 to 100 nM,0.01 to 100 nM
Cc1cc(-c2cc(COCC3(c4cccnc4)CCN(C)CC3)cc(C(F)(F)F)c2)ccc1C#N,,0.01 to 100 nM,0.01 to 100 nM
CN1CCC(COCc2cc(-c3ccc(C#N)cc3)cc(C(F)(F)F)c2)(c2ccncc2)CC1,,0.01 to 100 nM,0.01 to 100 nM
CN1CCC(COCc2cc(-c3ccc(C#N)cc3)cc(C(F)(F)F)c2)(c2ccc(-c3ccco3)cc2)CC1,,0.01 to 100 nM,100 to 300 nM
COc1cccc(C2(COCc3cc(-c4ccc(C#N)cc4)cc(C(F)(F)F)c3)CCN(C)CC2)c1,,0.01 to 100 nM,0.01 to 100 nM
